Experimental data taken from patent publication US11058772B2, “(Bacterio)chlorophyll photosensitizers for treatment of eye diseases and disorders” (Yeda Research and Development Co. Ltd., priority 2011, dated 2021).
“Also recorded” adds a separate entry of the source.

How the values were obtained:
rabbit cornea [1] = experiment: Clinical course after in vivo cornea treatment (edema, epithelial healing, haze); details: for epithelial haze / time to healing of corneal epithelial defect: dipotassium salt
Procedure: (§1) Twelve to twenty five weeks old rabbits (2.5-3 Kg weight) were used. They were anesthetized by intramuscular (i.m.) injection of 35 mg/kg ketamine (Rhone Merieux, Lyon, France) and 5 mg/kg xylazine (Vitamed, Binyamina, Israel). Usually, 16 rabbits were assigned for bacteriochlorophyll treatment. After de-epithelialization, one eye of each rabbit was treated topically with a test compound in saline for 10, 20 and 30 minutes using an eye cap (12 mm in diameter), followed by NIR illumination for 10, 20 or 30 minutes (755 nm, 10 mW/cm^2). The other eye served as untreated control. To prevent exposure of the limbal stem cells, the illuminated area was restricted by an aluminum foil mask with an 8 mm diameter central opening. To determine the role of dextran, 12 rabbits were divided into 4 treatment groups of 3 rabbits each: group 1, the Bchl-S group, was treated with a saline solution of a bacteriochlorophyll derivative; group 2, the Bchl-D group, treated with a bacteriochlorophyll-dextran solution. Both groups were incubated with the test compound for 20-min, followed by NIR illumination (755 nm, 10 mW/cm^2) for 30 minutes. Group 3, the RF group, was treated with riboflavin without dextran, and group 4, the RF-D group was treated with RF-dextran solution (RF-D). Both groups were incubated with RF or RF-D solutions for 30-minute, followed by UVA illumination (370 nm, 3 mW/cm^2) for 30 minutes. An ophthalmic ointment containing dexamethasone 0.1%, neomycin and polymixin B (Maxitrol®, Alcon, Belgium) was applied on the treated eyes once daily for two weeks. Four weeks after the treatment the rabbits were sacrificed, and the corneoscleral rings were removed and placed on paraffin hemisphere buttons of matching shape to assure accurate sectioning without stretching the tissue. Corneal strips, 4±0.2 mm in width, were cut from the epithelial side, as described above in the ex-vivo section. The corneal strips were transferred to the biomechanical tester without delay.
(§2) To determine the role of dextran, the photochemical treatment with a formulation of WST11 2.5 mg/ml containing 20% dextran T-500 (WST11-D) was examined. Six rabbits were examined: 3 rabbits were pretreated for 20 min with WST11-S solution and 3 with WST11-D solution, followed by NIR illumination for 30 minutes. Additional 4 rabbits were treated with RF (n=2) or RF-D (n=2) for 30 minutes, followed by 30-min UVA irradiation (370 nm, 3 mW/cm^2).

[2] = ESR spin trapping (4-POBN) of reactive oxygen species in aqueous solution; type: physicochemical; details: NIR (WST11) or UVA (RF) irradiation
Procedure: All ESR measurements were carried out using a Magnettech ESR Miniscope MS 100 Spectrometer (Germany), with a Microwave X-band Bridge. The ESR spectrometer operates at 9.3-9.55 GHz, 20 mW microwave power. ESR measurements were carried out at room temperature in glass capillaries or flat cells. […] To each solution, the spin-trap α-(4-pyridyl N-oxide)-N-tert-butylnitrone (4-POBN, 65 mM) and ethanol (8%) were added. Controls contained illuminated 4-POBN in saline with/without dextran, and non-illuminated Bchl-S, Bchl-D, RF and RF-D solutions with/without 4-POBN.

rabbit cornea [3] = experiment: Stress-strain measurements of in-vivo treated corneas
Procedure: as §1
(§3) The corneal and scleral strips were clamped horizontally, at a distance of 6 mm, between the jaws of a microcomputer-controlled biomaterial tester (Minimat, Germany) with a 200 Newton force cell (FIG. 1). Controlled tightening of screws was performed with a calibrated screwdriver at a preset torque of 9 cN.m (Torqueleader, England). The strain was increased linearly at a rate of 1.0 mm/min and was measured up to tissue rupture. Young's modulus was calculated by the testing machine. Ultimate stress and Young's modulus were expressed in Mega Pascal (MPa) units.
Corneas of 16 live rabbits were pretreated for 10 (n=4), 20 (n=6) and 30 (n=6) minutes with WST11-S (2.5 mg/ml). NIR illumination (755 nm, 10 mW/cm^2) was then delivered for 30 minutes. […] Results are shown in FIGS. 9A-9B, and in Tables 1 and 2.
as §2

rabbit sclera [4] = experiment: Biomechanical testing of rabbit sclera treated ex vivo, external NIR illumination; details: 2.5 mg/ml 30 min, external NIR 30 min
Procedure: The opposite side of the sclera served as control. Scleral strips, 4 mm in width, were cut at the equatorial treated area and the opposite sclera, and stress-strain measurements were performed using a biomaterial tester.
as §3
Stress-strain tests of sclera of enucleated rabbits' eyes were performed following treatment with WST11 (2.5 mg/ml) as described in Materials and Methods. After photosensitizer impregnation, the sclera was illuminated by applying the laser beam directly onto the treated area (external illumination), using a flat optical fiber that run along a curved plastic or metal glide as shown in FIG. 17A. Strips of the sclera were cut and tested.

rabbit sclera [5] = experiment: Depth of penetration into the rabbit sclera (fluorescence microscopy); type: in vitro ADME; details: ex vivo using eye cap and in-situ using Merocel sponge
Procedure: Test compound solution was applied in the supero-temporal or infero-nasal (alternating) quadrant of the rabbit by a curved plastic or metal glide with attached Merocel® sponge connected by a tube that ran along the glide outside. The glide was inserted through a conjunctival opening at the limbus (see FIGS. 17A-17B). After placing the glide attached to the sclera, the tube was connected to a syringe or pump, and the test compound reservoir was injected to impregnate the sclera. Application of the photosensitizer was continued for 10 or 30 minutes. Afterwards, the glide with the Merocel® was withdrawn.
The treated scleral area and the opposing control sclera were trephined with a round skin trephine of 8-mm diameter and scissors and immediately frozen. Sagittal slices of 20 microns were dissected with a cryomicrotome at the central area of the scleral button. The fluorescence intensity at 755 nm was recorded upon excitation at 740 nm using a fluorescence microscope (Olympus, Japan).

[6] = in vivo after photosensitizer + illumination
[7] = in vivo after photosensitizer + illumination, listed as WST11-S
[8] = 20 min pretreatment, saline or 20% dextran T-500 formulation, 30 min NIR
[9] = 30 days, 30 min incubation, 30 min NIR, vs untreated fellow eyes, dipotassium salt
[10] = 30 days, 30 min incubation, 30 min NIR, vs untreated fellow eyes, listed as WST11-S, dipotassium salt
[11] = one month, 10 min incubation, 30 min NIR
[12] = one month, 20 min incubation, 30 min NIR

In the case of `CCC1C2=Cc3c(C)c(C(=O)NCCS(=O)(=O)[O-])c4[n]3[Pd][n]3c(c(C)c(C(C)=O)c3=CC(=N2)C1C)=CC1=NC(=C4CC(=O)OC)C(CCC(=O)[O-])C1C.[K+].[K+]` (stereo not shown) [WST11, Palladium 3^1-oxo-15-methoxycarbonylmethyl-rhodobacteriochlorin 13^1-(2-sulfoethyl)amide dipotassium salt], the “time to clearing of corneal edema” value (rabbit cornea [1]; [6]) is reported as 5 days, the epithelial haze (rabbit cornea [1]; [6]) is reported as “without haze development” and the “time to healing of corneal epithelial defect” value (rabbit cornea [1]; [6]) is reported as 7 to 9 days. The epithelial haze (rabbit cornea [1]; [7]) was “some corneas demonstrating epithelial haze”, the “time to healing of corneal epithelial defect” value (rabbit cornea [1]; [7]) was 10 to 14 days and the “corneal edema after treatment, duration” value (rabbit cornea [1]; in vivo, saline solution/NIR) was “one week”. For the same compound, the “singlet oxygen trapping (ESR quartet of 4-POBN)” value [2] was “minimal traces of singlet oxygen”, the “superoxide and hydroxyl radicals (ESR sextet of 4-POBN)” value ([2]; dipotassium salt) was “generate superoxide and hydroxyl radicals; also recorded: superoxide and hydroxyl radical formation” and the “increase in Young's modulus compared with untreated corneas of fellow eyes” value (rabbit cornea [3]; [8]) was “approximately two-fold increase”. For the same compound, the “increase in mean ultimate stress compared with untreated corneas of fellow eyes” value (rabbit cornea [3]; [8]) was “approximately two-fold increase”, the “Mean Young's Modulus Intensity” value (rabbit cornea [3]; 30 days, 30 min incubation 2.5 mg/ml, 30 min NIR) was 32 ± 3.6 MPa and the “Mean ultimate stress Intensity” value (rabbit cornea [3]; 30 days, 30 min incubation 2.5 mg/ml, 30 min NIR 755 nm 10 mW/cm^2) was 6.91 ± 0.53 MPa. The “Mean Young's Modulus Increase %” value (rabbit cornea [3]; [9]) was 174%, the “Mean ultimate stress Increase %” value (rabbit cornea [3]; [9]) was 111% and the “Mean Young's Modulus Increase %” value (rabbit cornea [3]; [10]) was 173%. For the same compound, the “Mean ultimate stress Increase %” value (rabbit cornea [3]; [10]) was 126%, the “Mean Young's Modulus Intensity” value (rabbit cornea [3]; [11]) was 13.9 ± 3.9 MPa and the “Mean ultimate stress Increase %” value (rabbit cornea [3]; [11]) was 45%. The “Mean ultimate stress Intensity” value (rabbit cornea [3]; [11]) was 4.51 ± 1.85 MPa, the “Mean Young's Modulus Increase %” value (rabbit cornea [3]; one month, 10 min incubation, 30 min NIR, dipotassium salt) was 9% and the “Mean Young's Modulus Increase %” value (rabbit cornea [3]; one month, 10 min incubation, 30 min NIR, listed as WST11-S, dipotassium salt) was 10%. The “Mean Young's Modulus Increase %” value (rabbit cornea [3]; [12]) was 79%, the “Mean Young's Modulus Intensity” value (rabbit cornea [3]; [12]) was 22.7 ± 3.82 MPa and the “Mean ultimate stress Increase %” value (rabbit cornea [3]; [12]) was 113%. For the same compound, the “Mean ultimate stress Intensity” value (rabbit cornea [3]; [12]) was 6.66 ± 0.67 MPa, the mean maximal stress (rabbit sclera [4]; control 2.77±0.99) was 7.6±0.99 MPa and the “mean Young's modulus” value (rabbit sclera [4]; control 15.2±7.5) was 45.6±3.9 MPa. For the same compound, the penetration into sclera (rabbit sclera [5]) was “penetrated into sclera tissue”.
